Results taken from ChEMBL document CHEMBL1131729, “Isolation and synthesis of a novel immunosuppressive 17alpha-substituted dammarane from the flour of the Palmyrah palm (Borassus flabellifer)” (Bioorg Med Chem Lett, 1999).
Converted amounts (≈) assume the structure as drawn.

Assays:
Mus musculus [1] = experiment: In vivo immunosuppressive activity in the delayed type hypersensitivity model induced by SRBC-TH cells in mouse after peroral administration; type: functional; details: po
Mus musculus [2] = experiment: Compound was tested […] for immunosuppressive activity in the serum free mixed lymphocyte reaction; type: functional

## C=C(C/C=C/C(C)(C)O)[C@H]1CC[C@]2(C)[C@@H]1CC[C@@H]1[C@@]3(C)CC[C@H](O)C(C)(C)[C@@H]3CC[C@]12C
Mus musculus [1]
  ED50: 10 mg/kg
Mus musculus [2]
  IC50: 0.8 µg/mL (≈ 1.81 µM)

## C=C(C/C=C/C(C)(C)O)[C@@H]1CC[C@]2(C)[C@@H]1CC[C@@H]1[C@@]3(C)CC[C@H](O)C(C)(C)[C@@H]3CC[C@]12C
Mus musculus [1]
  ED50: 0.04 mg/kg
Mus musculus [2]
  IC50: 0.01 µg/mL (≈ 0.0226 µM)
